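Growth conditions: 96-well plates. Treatment: test compound, 48 hours, 5 concentrations. Analysis: linear interpolation between bracketing concentrations; unreached endpoints set to highest concentration. TGI is the concentration that stops growth completely.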
How the values were obtained:
Assay in all cases: inhibition of tumour cell growth, NCI panel, 48 h
RXF 393 renal = system: RXF 393 renal
SF-295 CNS = system: SF-295 CNS
RPMI-8226 leukemia = system: RPMI-8226 leukemia
UACC-257 melanoma = system: UACC-257 melanoma
HCT-15 colon = system: HCT-15 colon
KM12 colon = system: KM12 colon
NCI-H226 lung = system: NCI-H226 lung
TK-10 renal = system: TK-10 renal
BT-549 breast = system: BT-549 breast
T-47D breast = system: T-47D breast

Row | SMILES | TGI (RXF 393 renal) [µM] | TGI (SF-295 CNS) [µM] | TGI (RPMI-8226 leukemia) [µM] | TGI (UACC-257 melanoma) [µM] | TGI (HCT-15 colon) [µM] | TGI (KM12 colon) [µM] | TGI (NCI-H226 lung) [µM] | TGI (TK-10 renal) [µM] | TGI (BT-549 breast) [µM] | TGI (T-47D breast) [µM]
1 | NC(=O)c1ncn2c1NC(=O)CC2 | > 100 | > 100 | > 100 | > 100 | > 100 | > 100 | > 100 | – | – | –
2 | O=C(OCc1ccccc1)C(Cc1ccccc1)N(Cc1ccccc1)Cc1ccccc1 (centres undefined) | > 100 | > 100 | > 100 | > 100 | > 100 | > 100 | – | > 100 | – | –
3 | COP(=O)(OC)C12CCOCCN1c1ccccc1C2=O (centres undefined) | – | > 100 | > 100 | > 100 | > 100 | > 100 | > 100 | > 100 | > 100 | > 100
4 | O=C1CC(Sc2nc3ccc(I)cc3c(=O)n2Cc2ccccc2)C(=O)NN1 (centres undefined) | – | 36.9 | 45.5 | 35.3 | 28.8 | 38.8 | 25.2 | 30.5 | 29.3 | 34.3
5 | O=C1CCc2ccc3c(c21)CC1(Cc2ccccc2C1)C3 | – | 38 | > 100 | 35.7 | > 100 | 46 | 67.8 | 99.3 | > 100 | 59.2
6 | CC(C)(C)OC(=O)n1c(-c2ccccc2F)cc(=O)c2cc3c(cc21)OCO3 | > 40.3 | > 100 | 20.7 | – | > 31.9 | – | – | > 100 | > 100 | > 100
7 | CCCCN(CCCC)C(=C(C(Cl)=C(Cl)Cl)[N+](=O)[O-])N(CCCC)CCCC | – | > 100 | 58.7 | > 100 | > 100 | > 100 | > 100 | > 100 | > 100 | > 100
8 | CCCCC#CS(=O)(=O)C(F)(F)F | 78.1 | > 100 | > 100 | > 100 | > 100 | > 100 | > 100 | – | – | –
9 | COc1cc(CNc2nc3cc(C(F)(F)F)ccc3nc2-c2ccccc2)cc(OC)c1OC | 51.7 | > 100 | > 100 | > 100 | 56 | 53 | > 100 | > 100 | – | 6.62
10 | O=C(CNCc1ccccc1)Oc1c(Cl)c(Cl)c(Cl)c(Cl)c1Cl | > 100 | 92.9 | – | 54.8 | 61 | 51.1 | 83.1 | > 100 | 44.2 | 67.9
11 | COC(=O)C1=C(O)C(C(=O)OC)[C@@]2(O)[C@@H](C(=O)OC)[C@H](C)[C@@H](C)[C@@H]1[C@@H]2C(=O)OC (some centres undefined) | 72.3 | – | > 100 | > 100 | > 100 | > 100 | > 100 | > 100 | > 100 | > 100
12 | Cc1cn2c(C)csc2c1P(=O)(OC(C)C)OC(C)C | > 100 | > 100 | > 100 | > 100 | > 100 | > 100 | – | > 100 | > 100 | –

From PubChem BioAssay (NCI)
